# Results published in patent EP0369733A2, “Fluorescent indicator dyes for alkali metal cations, their preparation and use” (THE REGENTS OF THE UNIVERSITY OF CALIFORNIA, priority 1988, dated 1990).
# Key:
# [1] = Cation titration followed by absorbance or fluorescence excitation spectra: Na⁺ binding
# Description: (§1) • Footnote a: For molecular structures, see Fig. 1. • Footnote b: Except where otherwise noted, these dissociation constants were measured with the chelator dissolved in 0.1 M tetramethylammonium chloride, at a pH held high enough with 1-5 mM tris(hydroxymethyl)aminomethane for protonation to be insignificant. The absorbance spectrum, or the fluorescence excitation spectrum for those compounds (2GG, 2NN, 2OO, 2PP, 3NN) with acronyms was measured as a function of the concentration of cation added as a solid or concentrated aqueous solution of the halide salt. No correction has been made for the changing ionic strength of the solution, which started from 0.1 M and increased, but the absorbances and fluorescence amplitudes were applied for dilution of the dye and any slight quenching due to high concentrations of Cl⁻. • Footnote c: These protonation constants were determined in 0.1 M tetramethylammonium chloride, 10 mM tris(hydroxymethyl)aminomethane, titrated with 5 M H₃PO₄ to successively lower pH values measured with a Radiometer PHM84 meter. […] The first number is the wavelength in nanometers, followed in parentheses by 10⁻³ x the corresponding extinction coefficient, M⁻¹cm⁻¹. […] Emission maxima are not corrected for the spectral sensitivity of the emission detection. Quantum efficiencies were measured (13) by comparing the integral of the corrected emission spectrum with the corresponding integral for a solution of quinine bisulfate in 1 N H₂SO₄ of matched absorbance at the excitation wavelength.
# (§2) Affinities for other cations were usually measured by titrating aqueous solutions of the indicator with metal chlorides added either as solid or from concentrated stock solutions, taking care to minimize dilution and correct for it. A convenient way to mass-produce premeasured micromole to millimole aliquots of solid NaCl or KCl was to pipet saline solutions into polypropylene micro test tubes and evaporate the water in an oven. The standard ionic background was again 100 mM tetramethylammonium chloride, usually with a few mM of tris(hydroxymethyl)-aminomethane base to hold the pH high enough (pH 8-9) to insure that protonation was negligible. This convenient titration procedure had the slight disadvantage that the ionic strength was not constant, especially when large quantities of a salt had to be added due to weak affinities. […] When constant ionic strength was desired, the chelator was made up at identical concentrations in matched solutions of NaCl, KCl, or tetramethylammonium chloride, then these stocks were mixed in the desired proportions. All measurements were made at room temperature (22°, ±2° C).
# [2] = Cation titration followed by absorbance or fluorescence excitation spectra: K⁺ binding; conditions: inert background cations such as tetramethylammonium or Cs⁺, high pH
# Description: as §1
# Affinities for other cations were usually measured by titrating aqueous solutions of the indicator with metal chlorides added either as solid or from concentrated stock solutions, taking care to minimize dilution and correct for it. […] This convenient titration procedure had the slight disadvantage that the ionic strength was not constant, especially when large quantities of a salt had to be added due to weak affinities. […]
# [3] = Cation titration followed by absorbance or fluorescence excitation spectra: Ca²⁺ binding; conditions: 0.1 M tetramethylammonium chloride, 1-5 mM tris(hydroxymethyl)aminomethane, high pH, read-out: Dissociation constants (Kd) in mM for Ca²⁺
# Description: as §1, §2
# [4] = Effective Kd for Na⁺ against a K⁺ background; format: binding
# Description: For comparison, Lehn's cryptand [2.2.1] (see ref. 5) is shown in the upper left hand corner. Below cryptand [2.2.1] are three generic types of crown ethers that have been prepared for use in the making some of the compounds of the present invention. To the right of the vertical dividing line are examples of some of the aromatic and heterocyclic substituents that can be attached to the nitrogens of the crown ethers. […] The lowest curve ([Na⁺] = 0) was obtained with 5 µM SBFI in 130 mM KCl, 10 mM MOPS, KOH to pH 7.05, approximately 135 mM total K⁺. The highest curve ([Na⁺] = 135 mM) was analogously recorded from 5 µM SBFI in 130 mM NaCl, 10 mM MOPS, NaOH to pH 7.05. […]
# • Footnote a: For molecular structures, see Fig. 1. • Footnote b: Except where otherwise noted, these dissociation constants were measured with the chelator dissolved in 0.1 M tetramethylammonium chloride, at a pH held high enough with 1-5 mM tris(hydroxymethyl)aminomethane for protonation to be insignificant. The absorbance spectrum, or the fluorescence excitation spectrum for those compounds (2GG, 2NN, 2OO, 2PP, 3NN) with acronyms was measured as a function of the concentration of cation added as a solid or concentrated aqueous solution of the halide salt. […]
# [5] = UV absorbance spectra without and with saturating cation; format: physicochemical
# Description: as §1
# UV absorbance spectra were recorded initially on a Cary 210 and later on a Perkin-Elmer Lambda Array 3840 spectrophotometer. Fluorescence excitation and emission spectra and quantum efficiencies were measured on a Spex Fluorolog 111 as described previously (13).
# [6] = Non-specific quenching of fluorescence by CsCl; format: physicochemical
# Description: Selectivities of SBFP and SBFI against other cations are also adequate (Table I). […] Ratioing therefore not only normalizes for amount of dye in the optical path but also improves the discrimination against pH changes. […] Dissociation constants for Mg²⁺ and Ca²⁺ are high enough (about 60 mM and 38 mM respectively) for cytosolic levels of those ions to have insignificant effect. Curiously, Ca²⁺ is unique in causing a large hypsochromic shift of the emission peak, to 432 nm. All the above-mentioned salts except tetramethylammonium seem to cause a slight non-specific quenching of SBFI at very high concentrations. For example, CsCl causes no spectral shift at all, but 100, 200, and 500 mM CsCl depress the fluorescence by 9, 14, and 21% from the metal-free level. This effect is not a heavy-atom effect of Cs, since large excesses of Li⁺, Na⁺, and K⁺ also slightly quench their SBFI complexes. It may represent weak quenching by Cl⁻, since acetate and fluoride gave much less of the effect.
# physchem = conditions: 0.1 m tetramethylammonium chloride
# Description: • Footnote a: For molecular structures, see Fig. 1. • Footnote b: Except where otherwise noted, these dissociation constants were measured with the chelator dissolved in 0.1 M tetramethylammonium chloride, at a pH held high enough with 1-5 mM tris(hydroxymethyl)aminomethane for protonation to be insignificant. […] No correction has been made for the changing ionic strength of the solution, which started from 0.1 M and increased, but the absorbances and fluorescence amplitudes were applied for dilution of the dye and any slight quenching due to high concentrations of Cl⁻. • Footnote c: These protonation constants were determined in 0.1 M tetramethylammonium chloride, 10 mM tris(hydroxymethyl)aminomethane, titrated with 5 M H₃PO₄ to successively lower pH values measured with a Radiometer PHM84 meter.
# Proton dissociation constants of the chelators were measured by spectrophotometry or spectrofluorometry of buffered solutions, containing either 100 mM tetramethylammonium chloride as inert supporting electrolyte, or 121.5 mM K⁺, 13.5 mM Na⁺, and 1 mM Mg²⁺ to simulate the cation environment of vertebrate cytoplasm (14). Traces of UV-absorbing impurities in the tetramethylammonium chloride (Alfa Inorganics) were removed by filtration through acid-­washed activated charcoal. The concentration of the tetramethylammonium chloride was then measured by chloride titration, and the absence of significant Na⁺ contamination was verified with a sodium-selective glass electrode (Microelectrodes Inc.). When the chelators contained two protonatable nitrogens, the curve of absorbance or fluorescence versus pH was analyzed by computerized least-squares fitting to the equations for two arbitrary proton equilibria (15), with the added assumption that the two protonations each caused the same change in extinction coefficient or fluorescence.
compound,measurement,setting,value
"COc1cc2cc(-c3ccc(C(=O)O)cc3C(=O)O)oc2cc1N1CCOCCOCCN(c2cc3oc(-c4ccc(C(=O)O)cc4C(=O)O)cc3cc2OC)CCOCC1 [Compound 2PP, N,N-bis-(2-(2,4-dicarboxyphenyl)-5-methoxybenzofuran-6-yl)-diaza[15]-crown-5]",Kd,"[1]; 0.1 M tetramethylammonium chloride, 1-5 mM tris(hydroxymethyl)aminomethane, pH high enough for protonation to be insignificant, 22°, read-out: Dissociation constants (Kd) in mM for Na⁺",7.4 mM
same,Na⁺ affinity,"[1]; association constant, inert background cation (tetramethylammonium)",166 M⁻¹
same,Kd,"[1]; summary statement, conditions not specified, read-out: dissociation constant (Na⁺), range achieved",5 to 20 mM
same,K⁺ affinity,[2],7 M⁻¹
same,Kd,[3]; listed as 2PP (SBFI),38 mM
same,Kd,[3]; listed as SBFI,~38 mM
same,Kd,"[4]; Na⁺-K⁺ mixtures, sum held constant at 135 mM, 1 mM Mg²⁺ present, pH 7.05, read-out: apparent dissociation constant for Na⁺",17 to 19 mM
same,Kd,"[4]; [Na⁺]+[K⁺] = 280 mM (cytoplasm of marine organisms), read-out: effective Kd for SBFI-Na⁺",28 mM
same,Absorbance maxima -Na⁺ (wavelength),"[5]; 100 mM tetramethylammonium chloride plus 1-5 mM Tris, no Na⁺",346 nanometers
same,Absorbance maxima +Na⁺ (wavelength),[5]; enough NaCl added (0.2-1 M) to saturate the Na⁺ binding,334 nanometers
same,Absorbance maxima -Na⁺ (extinction coefficient),"[5]; number is 10⁻³ x the extinction coefficient, lower limits for most compounds, no Na⁺",42000 M⁻¹ cm⁻¹
same,Absorbance maxima +Na⁺ (extinction coefficient),"[5]; number is 10⁻³ x the extinction coefficient, lower limits, saturating NaCl (0.2-1 M)",47000 M⁻¹ cm⁻¹
same,extinction coefficients,"[5]; without to with Na⁺, in M-1·cm-1 (unit assumed)","42,000-47,000"
same,depression of fluorescence from the metal-free level,[6]; 100 mM CsCl,9%
same,depression of fluorescence from the metal-free level,[6]; 200 mM CsCl,14%
same,depression of fluorescence from the metal-free level,[6]; 500 mM CsCl,21%
same,pKa,physchem,6.1
